Counter-ions that a name gives are not always drawn.

We go through 19 compounds from US10065953B2, “Imidazo[1,2-A]pyridine derivatives for use as inhibitors of human immunodeficiency virus replication” (priority 2014, dated 2018).

The first assay has as its system recombinant NL-Rluc virus. The assay is described as follows: Inhibition of HIV replication (NL-RLuc luciferase reporter virus in MT-2 cells). The note with it: Human immunodeficiency virus 1, MT2, 120 h, MT-2 cells infected with NL-RLuc virus, 5 days of incubation, luciferase readout; serum condition of the table not specified. It is filed as cell-based. For orientation: Reporter assays use an easily measured gene product as a stand-in for the process of interest.
One may read the EC50 as the concentration giving half of the maximal effect. As to `Cc1ccc(-c2c([C@H](OC(C)(C)C)C(=O)O)c(C)cc3nc(-c4cccc(-c5ccc(F)cc5)c4)cn23)cc1` [Example 14, (S)-2-(tert-butoxy)-2-(2-(4′-fluoro-[1,1′-biphenyl]-3-yl)-7-methyl-5-(p-tolyl)imidazo[1,2-a]pyridin-6-yl)acetic Acid], the concentration giving a half-maximal response (EC50) was determined as 20 nM.

Take `Cc1ccc(-c2cccc(-c3cn4c(N5CCC(C)(C)CC5)c([C@H](OC(C)(C)C)C(=O)O)c(C)cc4n3)c2)c(F)c1` [Example 6, (S)-2-(tert-Butoxy)-2-(5-(4,4-dimethylpiperidin-1-yl)-2-(2′-fluoro-4′-methyl-[1,1′-biphenyl]-3-yl)-7-methylimidazo[1,2-a]pyridin-6-yl)acetic Acid]: the 50% effective concentration (EC50) is 21 nM. For the compound `Cc1cc2nc(-c3cccc(-c4ccc(F)cc4)c3)cn2c(-c2ccc(F)cc2)c1[C@H](OC(C)(C)C)C(=O)O` [Example 17, (S)-2-(tert-Butoxy)-2-(2-(4′-fluoro-[1,1′-biphenyl]-3-yl)-5-(4-fluorophenyl)-7-methylimidazo[1,2-a]pyridin-6-yl)acetic Acid], the EC50 worked out at 159 nM. As to `Cc1cc2nc(-c3cccc(-c4cnn(Cc5ccccc5)c4)c3)cn2c(N2CCC(C)(C)CC2)c1[C@H](OC(C)(C)C)C(=O)O` [Example 8, (S)-2-(2-(3-(1-Benzyl-1H-pyrazol-4-yl)phenyl)-5-(4,4-dimethylpiperidin-1-yl)-7-methylimidazo[1,2-a]pyridin-6-yl)-2-(tert-butoxy)acetic Acid], the concentration giving a half-maximal response (EC50) is 22 nM. With `Cc1cc2nc(-c3cccc(-c4cnn(C)c4)c3)cn2c(N2CCC(C)(C)CC2)c1[C@H](OC(C)(C)C)C(=O)O` [Example 9, (S)-2-(tert-Butoxy)-2-(5-(4,4-dimethylpiperidin-1-yl)-7-methyl-2-(3-(1-methyl-1H-pyrazol-4-yl)phenyl)imidazo[1,2-a]pyridin-6-yl)acetic Acid], the EC50 was found to be 6 nM. `Cc1cc2nc(-c3cccc(-c4ccccc4)c3)cn2c(N2CCC(C)(C)CC2)c1[C@H](OC(C)(C)C)C(=O)O` [Example 1, (S)-2-(2-([1,1′-Biphenyl]-3-yl)-5-(4,4-dimethylpiperidin-1-yl)-7-methylimidazo[1,2-a]pyridin-6-yl)-2-(tert-butoxy)acetic Acid]: the half-maximal effective concentration (EC50) stood at 51 nM.

Regarding `Cc1cc2nc(-c3cccc(-c4ccc(F)cc4F)c3)cn2c(N2CCC(C)(C)CC2)c1[C@H](OC(C)(C)C)C(=O)O` [Example 5, (S)-2-(tert-Butoxy)-2-(2-(2′,4′-difluoro-[1,1′-biphenyl]-3-yl)-5-(4,4-dimethylpiperidin-1-yl)-7-methylimidazo[1,2-a]pyridin-6-yl)acetic Acid], the concentration for a half-maximal effect (EC50) was found to be 29 nM. Consider `Cc1cc(-c2cccc(-c3cn4c(N5CCC(C)(C)CC5)c([C@H](OC(C)(C)C)C(=O)O)c(C)cc4n3)c2)n(C)n1` [Example 10, (S)-2-(tert-Butoxy)-2-(2-(3-(1,3-dimethyl-1H-pyrazol-5-yl)phenyl)-5-(4,4-dimethylpiperidin-1-yl)-7-methylimidazo[1,2-a]pyridin-6-yl)acetic Acid], for which the EC50 is 7 nM. For the compound `Cc1cc2nc(-c3cccc(-c4ccc(F)cc4)c3)cn2c(-c2ccc3c(c2)C(C)(C)CCO3)c1[C@H](OC(C)(C)C)C(=O)O` [Example 19, (S)-2-(tert-Butoxy)-2-(5-(4,4-dimethylchroman-6-yl)-2-(4′-fluoro-[1,1′-biphenyl]-3-yl)-7-methylimidazo[1,2-a]pyridin-6-yl)acetic Acid], the concentration for a half-maximal effect (EC50) is 95 nM. In the case of `Cc1ccc(-c2cccc(-c3cn4c(N5CCC(C)(C)CC5)c([C@H](OC(C)(C)C)C(=O)O)c(C)cc4n3)c2)cc1` [Example 2, (S)-2-(tert-butoxy)-2-(5-(4,4-dimethylpiperidin-1-yl)-7-methyl-2-(4′-methyl-[1,1′-biphenyl]-3-yl)imidazo[1,2-a]pyridin-6-yl)acetic Acid], the concentration for a half-maximal effect (EC50) came out at 32 nM. Same read-out and setting: the same measure for `Cc1cc2nc(-c3cccc(-c4ccc(F)cc4)c3)cn2c(-c2ccc3c(c2)CCCO3)c1[C@H](OC(C)(C)C)C(=O)O` [Example 18, (S)-2-(tert-Butoxy)-2-(5-(chroman-6-yl)-2-(4′-fluoro-[1,1′-biphenyl]-3-yl)-7-methylimidazo[1,2-a]pyridin-6-yl)acetic Acid]: 7 nM; for `Cc1cc2nc(-c3cccc(-c4ccc(F)cc4)c3)cn2c(N2CCC(C)(C)CC2)c1[C@H](OC(C)(C)C)C(=O)O` [Example 3, (S)-2-(tert-Butoxy)-2-(5-(4,4-dimethylpiperidin-1-yl)-2-(4′-fluoro-[1,1′-biphenyl]-3-yl)-7-methylimidazo[1,2-a]pyridin-6-yl)acetic Acid]: 26 nM. As to `Cc1cc2nc(-c3cccc(-c4cc(C(F)(F)F)nn4C)c3)cn2c(N2CCC(C)(C)CC2)c1[C@H](OC(C)(C)C)C(=O)O` [Example 11, (S)-2-(tert-Butoxy)-2-(5-(4,4-dimethylpiperidin-1-yl)-7-methyl-2-(3-(1-methyl-3-(trifluoromethyl)-1H-pyrazol-5-yl)phenyl)imidazo[1,2-a]pyridin-6-yl)acetic Acid], the EC50 was determined as 21 nM. For the compound `Cc1cc2nc(-c3cccc(-c4cccc(C#N)c4)c3)cn2c(N2CCC(C)(C)CC2)c1[C@H](OC(C)(C)C)C(=O)O` [Example 7, (S)-2-(tert-Butoxy)-2-(2-(3′-cyano-[1,1′-biphenyl]-3-yl)-5-(4,4-dimethylpiperidin-1-yl)-7-methylimidazo[1,2-a]pyridin-6-yl)acetic Acid], the EC50 came out at 6 nM. Turning to `Cc1cc2nc(-c3cccc(-c4cccc(F)c4)c3)cn2c(N2CCC(C)(C)CC2)c1[C@H](OC(C)(C)C)C(=O)O` [Example 4, (S)-2-(tert-butoxy)-2-(5-(4,4-dimethylpiperidin-1-yl)-2-(3′-fluoro-[1,1′-biphenyl]-3-yl)-7-methylimidazo[1,2-a]pyridin-6-yl)acetic Acid], the half-maximal effective concentration (EC50) came out at 21 nM.

Still in this assay, the particulars now being: MT-2 cells infected with NL-RLuc virus, 5 days of incubation, luciferase readout; serum condition of the table not specified.
Turning to `Cc1cc2nc(-c3cccc(-c4ccc(F)cc4)c3)cn2c(-c2ccc3c4c(ccnc24)CCO3)c1[C@H](OC(C)(C)C)C(=O)O` [Example 12, (2S)-2-(tert-Butoxy)-2-(5-(2,3-dihydropyrano[4,3,2-de]quinolin-7-yl)-2-(4′-fluoro-[1,1′-biphenyl]-3-yl)-7-methylimidazo[1,2-a]pyridin-6-yl)acetic Acid.TFA], the EC50 is 19 nM. For the compound `Cc1cc2nc(-c3cccc(-c4ccc(F)cc4)c3)cn2c(-c2cc(F)c3c(c2C)CCCO3)c1[C@H](OC(C)(C)C)C(=O)O` [Example 15, (2S)-2-(tert-Butoxy)-2-(5-(8-fluoro-5-methylchroman-6-yl)-2-(4′-fluoro-[1,1′-biphenyl]-3-yl)-7-methylimidazo[1,2-a]pyridin-6-yl)acetic Acid], the EC50 was determined as 175 nM.

Turning to `Cc1cc2nc(-c3cccc(-c4ccc(F)cc4)c3)cn2c(-c2cc(F)c3c(c2C)CCCO3)c1[C@H](OC(C)(C)C)C(=O)O` [Example 16, (2S)-2-(tert-Butoxy)-2-(5-(8-fluoro-5-methylchroman-6-yl)-2-(4′-fluoro-[1,1′-biphenyl]-3-yl)-7-methylimidazo[1,2-a]pyridin-6-yl)acetic Acid], the EC50 was determined as 4 nM. As to `Cc1cc2nc(-c3cccc(-c4ccc(F)cc4)c3)cn2c(-c2ccc3c4c(ccnc24)CCO3)c1[C@H](OC(C)(C)C)C(=O)O` [Example 13, (2S)-2-(tert-Butoxy)-2-(5-(2,3-dihydropyrano[4,3,2-de]quinolin-7-yl)-2-(4′-fluoro-[1,1′-biphenyl]-3-yl)-7-methylimidazo[1,2-a]pyridin-6-yl)acetic Acid.TFA], the half-maximal effective concentration (EC50) stood at 398 nM.
